Read-outs that look alike come from different tables or passages of the source.
What was measured:
[1] = tested on: Zucker Fatty (ZF) rats; assay: Oral carbohydrate loading test of Zucker Fatty rats: compound 3, voglibose and combination (plasma glucose and insulin); assay type: in vivo, rat
Source text: Four groups each containing 5 rats were formed. […] [table]

[2] = tested on: ZF rats

In the case of `OCC(CO)N[C@H]1C[C@](O)(CO)[C@@H](O)[C@H](O)[C@H]1O` [voglibose, reference compound], the “suppression of increase in plasma glucose after oral carbohydrate loading, as compared to the vehicle group” value (“suppression of increase” for short) ([1]; male ZF rats, overnight fasted, compound 3 0.1 mg/kg and/or voglibose 0.1 mg/kg given 15 min before mixed carbohydrates 3.5 g/kg orally, area value over 60 min) is reported as 34%.

`Cc1cc(N2CCN([C@@H]3CN[C@H](C(=O)N4CCSC4)C3)CC2)n(-c2ccccc2)n1` [compound 3, 3-{(2S,4S)-4-[4-(3-methyl-1-phenyl-1H-pyrazol-5-yl)piperazin-1-yl]pyrrolidin-2-ylcarbonyl}thiazolidine] was tested, and the “suppression of increase” value ([2]; rat, in vivo) was 33%, the “suppression of increase” value ([1]; rat, in vivo) was 33% and the “increase of plasma insulin concentration as compared to the vehicle group” value ([1]; rat, in vivo, po, 0.1 mg/kg) was “about 3 fold”.

In the case of `CN(C)C(=N)N=C(N)N` [metformin, reference compound], the “suppression of increase” value ([2]; male ZF rats, overnight fasted, compound 3 0.3 mg/kg and/or metformin 50 mg/kg given 15 min before mixed carbohydrates 3.5 g/kg orally, area value over 120 min) is reported as 13%.
